Laboratory results reported in the NIST ThermoML archive (doi:10.1021/je0500577).
± gives the expanded uncertainty stated by the source.

Columns and labels:
[1] = xn = mol fraction of the nth substance listed; conditions: Drop volume
[2] = for surface tension liquid-gas: Drop volume; for mass density: 101.33 kPa, Liquid

BrC1CCCCC1 [bromocyclohexane] + CC1CCCO1
surface tension liquid-gas ([1]; 298.15 K, x1 = 0.042): 24.87 ± 0.22 mN/m
surface tension liquid-gas ([1]; 298.15 K, x1 = 0.0933): 25.28 ± 0.23 mN/m
surface tension liquid-gas ([1]; 298.15 K, x1 = 0.1942): 26.13 ± 0.23 mN/m
surface tension liquid-gas ([1]; 298.15 K, x1 = 0.2908): 26.95 ± 0.24 mN/m
surface tension liquid-gas ([1]; 298.15 K, x1 = 0.3921): 27.82 ± 0.24 mN/m
surface tension liquid-gas ([1]; 298.15 K, x1 = 0.5072): 28.82 ± 0.25 mN/m
surface tension liquid-gas ([1]; 298.15 K, x1 = 0.5896): 29.55 ± 0.25 mN/m
surface tension liquid-gas ([1]; 298.15 K, x1 = 0.6994): 30.58 ± 0.26 mN/m
surface tension liquid-gas ([1]; 298.15 K, x1 = 0.8173): 31.75 ± 0.26 mN/m
surface tension liquid-gas ([1]; 298.15 K, x1 = 0.9043): 32.65 ± 0.27 mN/m
surface tension liquid-gas ([1]; 298.15 K, x1 = 0.9247): 32.86 ± 0.27 mN/m
surface tension liquid-gas ([1]; 298.15 K, x1 = 1): 33.63 ± 0.28 mN/m
surface tension liquid-gas ([1]; 313.15 K, x1 = 0.042): 23.36 ± 0.22 mN/m
surface tension liquid-gas ([1]; 313.15 K, x1 = 0.0933): 23.78 ± 0.22 mN/m
surface tension liquid-gas ([1]; 313.15 K, x1 = 0.1942): 24.63 ± 0.22 mN/m
surface tension liquid-gas ([1]; 313.15 K, x1 = 0.2908): 25.48 ± 0.23 mN/m
surface tension liquid-gas ([1]; 313.15 K, x1 = 0.3921): 26.38 ± 0.23 mN/m
surface tension liquid-gas ([1]; 313.15 K, x1 = 0.5072): 27.43 ± 0.24 mN/m
surface tension liquid-gas ([1]; 313.15 K, x1 = 0.5896): 28.19 ± 0.24 mN/m
surface tension liquid-gas ([1]; 313.15 K, x1 = 0.6994): 29.24 ± 0.25 mN/m
surface tension liquid-gas ([1]; 313.15 K, x1 = 0.8173): 30.49 ± 0.26 mN/m
surface tension liquid-gas ([1]; 313.15 K, x1 = 0.9043): 31.55 ± 0.26 mN/m
surface tension liquid-gas ([1]; 313.15 K, x1 = 0.9247): 31.85 ± 0.26 mN/m
surface tension liquid-gas ([1]; 313.15 K, x1 = 1): 32.98 ± 0.27 mN/m

ClC1CCCCC1 [chlorocyclohexane]
surface tension liquid-gas ([2]; 298.15 K): 31.05 ± 0.26 mN/m
mass density ([2]; 298.15 K): 993.17 ± 0.53 kg/m3
surface tension liquid-gas ([2]; 313.15 K): 29.44 ± 0.25 mN/m

ClC1CCCCC1 [chlorocyclohexane] + C1CCOC1
surface tension liquid-gas ([1]; 298.15 K, x1 = 0.0362): 27.27 ± 0.21 mN/m
surface tension liquid-gas ([1]; 298.15 K, x1 = 0.0728): 27.43 ± 0.21 mN/m
surface tension liquid-gas ([1]; 298.15 K, x1 = 0.1442): 27.73 ± 0.21 mN/m
surface tension liquid-gas ([1]; 298.15 K, x1 = 0.2258): 28.07 ± 0.22 mN/m
surface tension liquid-gas ([1]; 298.15 K, x1 = 0.3114): 28.43 ± 0.22 mN/m
surface tension liquid-gas ([1]; 298.15 K, x1 = 0.4061): 28.82 ± 0.23 mN/m
surface tension liquid-gas ([1]; 298.15 K, x1 = 0.5093): 29.25 ± 0.23 mN/m
surface tension liquid-gas ([1]; 298.15 K, x1 = 0.6163): 29.68 ± 0.24 mN/m
surface tension liquid-gas ([1]; 298.15 K, x1 = 0.7359): 30.11 ± 0.24 mN/m
surface tension liquid-gas ([1]; 298.15 K, x1 = 0.8602): 30.54 ± 0.25 mN/m
surface tension liquid-gas ([1]; 298.15 K, x1 = 0.9267): 30.77 ± 0.26 mN/m
surface tension liquid-gas ([1]; 298.15 K, x1 = 1): 31.05 ± 0.26 mN/m
surface tension liquid-gas ([1]; 313.15 K, x1 = 0.0361): 25.39 ± 0.2 mN/m
surface tension liquid-gas ([1]; 313.15 K, x1 = 0.0727): 25.56 ± 0.2 mN/m
surface tension liquid-gas ([1]; 313.15 K, x1 = 0.1434): 25.88 ± 0.2 mN/m
surface tension liquid-gas ([1]; 313.15 K, x1 = 0.2257): 26.25 ± 0.21 mN/m
surface tension liquid-gas ([1]; 313.15 K, x1 = 0.3114): 26.66 ± 0.21 mN/m
surface tension liquid-gas ([1]; 313.15 K, x1 = 0.4061): 27.09 ± 0.22 mN/m
surface tension liquid-gas ([1]; 313.15 K, x1 = 0.5071): 27.52 ± 0.22 mN/m
surface tension liquid-gas ([1]; 313.15 K, x1 = 0.6173): 27.96 ± 0.23 mN/m
surface tension liquid-gas ([1]; 313.15 K, x1 = 0.7351): 28.42 ± 0.23 mN/m
surface tension liquid-gas ([1]; 313.15 K, x1 = 0.8582): 28.89 ± 0.24 mN/m
surface tension liquid-gas ([1]; 313.15 K, x1 = 0.9291): 29.16 ± 0.25 mN/m
surface tension liquid-gas ([1]; 313.15 K, x1 = 1): 29.44 ± 0.25 mN/m

ClC1CCCCC1 [chlorocyclohexane] + C1CCOCC1
surface tension liquid-gas ([1]; 298.15 K, x1 = 0.0446): 27.44 ± 0.24 mN/m
surface tension liquid-gas ([1]; 298.15 K, x1 = 0.085): 27.58 ± 0.24 mN/m
surface tension liquid-gas ([1]; 298.15 K, x1 = 0.1673): 27.88 ± 0.24 mN/m
surface tension liquid-gas ([1]; 298.15 K, x1 = 0.2584): 28.23 ± 0.24 mN/m
surface tension liquid-gas ([1]; 298.15 K, x1 = 0.3519): 28.62 ± 0.25 mN/m
surface tension liquid-gas ([1]; 298.15 K, x1 = 0.4501): 29.01 ± 0.25 mN/m
surface tension liquid-gas ([1]; 298.15 K, x1 = 0.5511): 29.41 ± 0.25 mN/m
surface tension liquid-gas ([1]; 298.15 K, x1 = 0.658): 29.82 ± 0.25 mN/m
surface tension liquid-gas ([1]; 298.15 K, x1 = 0.7676): 30.24 ± 0.26 mN/m
surface tension liquid-gas ([1]; 298.15 K, x1 = 0.8744): 30.62 ± 0.26 mN/m
surface tension liquid-gas ([1]; 298.15 K, x1 = 0.9393): 30.84 ± 0.26 mN/m
surface tension liquid-gas ([1]; 298.15 K, x1 = 1): 31.05 ± 0.26 mN/m
surface tension liquid-gas ([1]; 313.15 K, x1 = 0.044): 25.64 ± 0.23 mN/m
surface tension liquid-gas ([1]; 313.15 K, x1 = 0.0854): 25.82 ± 0.23 mN/m
surface tension liquid-gas ([1]; 313.15 K, x1 = 0.1668): 26.17 ± 0.23 mN/m
surface tension liquid-gas ([1]; 313.15 K, x1 = 0.259): 26.55 ± 0.23 mN/m
surface tension liquid-gas ([1]; 313.15 K, x1 = 0.3527): 26.94 ± 0.24 mN/m
surface tension liquid-gas ([1]; 313.15 K, x1 = 0.4499): 27.33 ± 0.24 mN/m
surface tension liquid-gas ([1]; 313.15 K, x1 = 0.5923): 27.91 ± 0.24 mN/m
surface tension liquid-gas ([1]; 313.15 K, x1 = 0.6578): 28.17 ± 0.24 mN/m
surface tension liquid-gas ([1]; 313.15 K, x1 = 0.7693): 28.6 ± 0.25 mN/m
surface tension liquid-gas ([1]; 313.15 K, x1 = 0.8809): 29.02 ± 0.25 mN/m
surface tension liquid-gas ([1]; 313.15 K, x1 = 0.9385): 29.22 ± 0.25 mN/m
surface tension liquid-gas ([1]; 313.15 K, x1 = 1): 29.44 ± 0.25 mN/m

ClC1CCCCC1 [chlorocyclohexane] + CC1CCC(C)O1
surface tension liquid-gas ([1]; 298.15 K, x1 = 1): 31.05 ± 0.26 mN/m
surface tension liquid-gas ([1]; 313.15 K, x1 = 1): 29.44 ± 0.25 mN/m

ClC1CCCCC1 [chlorocyclohexane] + CC1CCCO1
surface tension liquid-gas ([1]; 298.15 K, x1 = 0.0471): 24.85 ± 0.22 mN/m
surface tension liquid-gas ([1]; 298.15 K, x1 = 0.0884): 25.11 ± 0.23 mN/m
surface tension liquid-gas ([1]; 298.15 K, x1 = 0.1722): 25.63 ± 0.23 mN/m
surface tension liquid-gas ([1]; 298.15 K, x1 = 0.2652): 26.2 ± 0.23 mN/m
surface tension liquid-gas ([1]; 298.15 K, x1 = 0.3605): 26.81 ± 0.24 mN/m
surface tension liquid-gas ([1]; 298.15 K, x1 = 0.4587): 27.44 ± 0.24 mN/m
surface tension liquid-gas ([1]; 298.15 K, x1 = 0.5615): 28.15 ± 0.24 mN/m
surface tension liquid-gas ([1]; 298.15 K, x1 = 0.6654): 28.86 ± 0.25 mN/m
surface tension liquid-gas ([1]; 298.15 K, x1 = 0.7761): 29.62 ± 0.25 mN/m
surface tension liquid-gas ([1]; 298.15 K, x1 = 0.8856): 30.34 ± 0.26 mN/m
surface tension liquid-gas ([1]; 298.15 K, x1 = 0.9418): 30.7 ± 0.26 mN/m
surface tension liquid-gas ([1]; 298.15 K, x1 = 1): 31.05 ± 0.26 mN/m
surface tension liquid-gas ([1]; 313.15 K, x1 = 0.0434): 23.23 ± 0.22 mN/m
surface tension liquid-gas ([1]; 313.15 K, x1 = 0.0868): 23.44 ± 0.22 mN/m
surface tension liquid-gas ([1]; 313.15 K, x1 = 0.1719): 23.93 ± 0.22 mN/m
surface tension liquid-gas ([1]; 313.15 K, x1 = 0.2653): 24.47 ± 0.22 mN/m
surface tension liquid-gas ([1]; 313.15 K, x1 = 0.3536): 25 ± 0.23 mN/m
surface tension liquid-gas ([1]; 313.15 K, x1 = 0.4591): 25.65 ± 0.23 mN/m
surface tension liquid-gas ([1]; 313.15 K, x1 = 0.5618): 26.31 ± 0.23 mN/m
surface tension liquid-gas ([1]; 313.15 K, x1 = 0.6677): 27.03 ± 0.24 mN/m
surface tension liquid-gas ([1]; 313.15 K, x1 = 0.7734): 27.78 ± 0.24 mN/m
surface tension liquid-gas ([1]; 313.15 K, x1 = 0.8805): 28.58 ± 0.25 mN/m
surface tension liquid-gas ([1]; 313.15 K, x1 = 0.9404): 29 ± 0.25 mN/m
surface tension liquid-gas ([1]; 313.15 K, x1 = 1): 29.44 ± 0.25 mN/m

C1CCOC1 [tetrahydrofuran]
surface tension liquid-gas ([2]; 298.15 K): 27.12 ± 0.21 mN/m
mass density ([2]; 298.15 K): 882.1 ± 0.45 kg/m3
surface tension liquid-gas ([2]; 313.15 K): 25.24 ± 0.2 mN/m

C1CCOC1 [tetrahydrofuran] + BrC1CCCCC1
surface tension liquid-gas ([1]; 298.15 K, x2 = 0): 27.12 ± 0.21 mN/m
surface tension liquid-gas ([1]; 313.15 K, x2 = 0): 25.24 ± 0.2 mN/m

C1CCOC1 [tetrahydrofuran] + ClC1CCCCC1
surface tension liquid-gas ([1]; 298.15 K, x2 = 0): 27.12 ± 0.21 mN/m
surface tension liquid-gas ([1]; 313.15 K, x2 = 0): 25.24 ± 0.2 mN/m

C1CCOCC1 [tetrahydropyran]
surface tension liquid-gas ([2]; 298.15 K): 27.29 ± 0.24 mN/m
mass density ([2]; 298.15 K): 878.82 ± 0.61 kg/m3
surface tension liquid-gas ([2]; 313.15 K): 25.46 ± 0.23 mN/m

C1CCOCC1 [tetrahydropyran] + BrC1CCCCC1
surface tension liquid-gas ([1]; 298.15 K, x2 = 0): 27.29 ± 0.24 mN/m
surface tension liquid-gas ([1]; 313.15 K, x2 = 0): 25.46 ± 0.23 mN/m

C1CCOCC1 [tetrahydropyran] + ClC1CCCCC1
surface tension liquid-gas ([1]; 298.15 K, x2 = 0): 27.29 ± 0.24 mN/m
surface tension liquid-gas ([1]; 313.15 K, x2 = 0): 25.46 ± 0.23 mN/m
